Data taken from ChEMBL document CHEMBL3046887, “Microwave-irradiated synthesis and antimicrobial activity of 2-phenyl-7-substitutedalkyl/arylaminoquinoline-4-carboxylic acid derivatives” (2010).
Calls of active or inactive are those of the source. No cut-off for these calls is given here.

Key:
Assay type in all cases: functional
[1] = system: Staphylococcus aureus; experiment: Antibacterial activity against Staphylococcus aureus MTCC 737 at 10 ug/well after 24 hr by agar well diffusion method; conditions: for zone of inhibition at 10 µg/disc: MTCC 737, 24 h, read-out: DIZ
[2] = system: Escherichia coli; experiment: Antibacterial activity against Escherichia coli MTCC 1652 at 10 ug/well after 24 hr by agar well diffusion method; conditions: for zone of inhibition at 10 µg/disc: MTCC 1652, 24 h, read-out: DIZ
[3] = system: Klebsiella pneumoniae; experiment: Antibacterial activity against Klebsiella pneumoniae MTCC 109 at 10 ug/well after 24 hr by agar well diffusion method; conditions: for zone of inhibition at 10 µg/disc: MTCC 109, 24 h, read-out: DIZ
[4] = system: Bacillus pumilus; experiment: Antibacterial activity against Bacillus pumilus MTCC 1640 at 10 ug/well after 24 hr by agar well diffusion method; conditions: for zone of inhibition at 10 µg/disc: MTCC 1640, 24 h, read-out: DIZ
[5] = system: Streptococcus pyogenes; experiment: Antibacterial activity against Streptococcus pyogenes MTCC 442 at 10 ug/well after 24 hr by agar well diffusion method; conditions: for zone of inhibition at 10 µg/disc: MTCC 442, 24 h, read-out: DIZ
[6] = system: Enterococcus faecalis; experiment: Antibacterial activity against Enterococcus faecalis MTCC 439 at 10 ug/well after 24 hr by agar well diffusion method; conditions: for zone of inhibition at 10 µg/disc: MTCC 439, 24 h, read-out: DIZ
[7] = system: Bacillus subtilis; experiment: Antibacterial activity against Bacillus subtilis MTCC 2397 at 10 ug/well after 24 hr by agar well diffusion method; conditions: for zone of inhibition at 10 µg/disc: MTCC 2397, 24 h, read-out: DIZ
[8] = system: Pseudomonas oleovorans; experiment: Antibacterial activity against Pseudomonas oleovorans MTCC 617 at 10 ug/well after 24 hr by agar well diffusion method; conditions: Ectopseudomonas oleovorans; for zone of inhibition at 10 µg/disc: MTCC 617, 24 h, read-out: DIZ
[9] = system: Bacillus cereus; experiment: Antibacterial activity against Bacillus cereus MTCC 430 at 10 ug/well after 24 hr by agar well diffusion method; conditions: for zone of inhibition at 10 µg/disc: MTCC 430, 24 h, read-out: DIZ
[10] = system: Pseudomonas aeruginosa; experiment: Antibacterial activity against Pseudomonas aeruginosa MTCC 741 at 10 ug/well after 24 hr by agar well diffusion method; conditions: for zone of inhibition at 10 µg/disc: MTCC 741, 24 h, read-out: DIZ
[11] = system: Pseudomonas aeruginosa; experiment: Antibacterial activity against Pseudomonas aeruginosa MTCC 741 after 24 hr by agar dilution method
[12] = system: Streptococcus pyogenes; experiment: Antibacterial activity against Streptococcus pyogenes MTCC 442 after 24 hr by agar dilution method

Compound	zone of inhibition at 10 µg/disc [1] [mm]	zone of inhibition at 10 µg/disc [2] [mm]	zone of inhibition at 10 µg/disc [3] [mm]	zone of inhibition at 10 µg/disc [4] [mm]	zone of inhibition at 10 µg/disc [6] [mm]	zone of inhibition at 10 µg/disc [8] [mm]	zone of inhibition at 10 µg/disc [9] [mm]	zone of inhibition at 10 µg/disc [5] [mm]	zone of inhibition at 10 µg/disc [7] [mm]	zone of inhibition at 10 µg/disc [10] [mm]	further results
O=C(O)c1cc(-c2ccccc2)nc2cc(Nn3cnnc3)ccc12	2	3	4	2	3	4	3	–	–	–	diameter of the inhibition zone (DIZ) [5]: inactive; diameter of the inhibition zone (DIZ) [7]: inactive; diameter of the inhibition zone (DIZ) [10]: inactive
O=C(O)c1cc(-c2ccccc2)nc2cc(Nc3ccccc3)ccc12	8	10	5	5	9	12	10	7	9	4	MIC [11]: 9 µg; MIC [12]: 4 µg
O=C(O)c1cc(-c2ccccc2)nc2cc(Nc3nccs3)ccc12	10	7	5	12	12	13	13	13	9	15	MIC [11]: 3 µg; MIC [12]: 5 µg
Cc1ccc(Nc2ccc3c(C(=O)O)cc(-c4ccccc4)nc3c2)cc1	5	8	3	9	9	8	6	7	6	3	–
O=C(O)c1cc(-c2ccccc2)nc2cc(Cl)ccc12	–	7	3	8	7	6	4	4	5	2	diameter of the inhibition zone (DIZ) [1]: inactive
GENTAMICIN	–	–	–	–	–	–	–	–	–	–	inhibition zone (IZ) [1]: 16 mm; inhibition zone (IZ) [2]: 16 mm; inhibition zone (IZ) [3]: 16 mm; inhibition zone (IZ) [4]: 17 mm; inhibition zone (IZ) [5]: 17 mm; inhibition zone (IZ) [6]: 18 mm; inhibition zone (IZ) [7]: 19 mm; inhibition zone (IZ) [8]: 19 mm; inhibition zone (IZ) [9]: 17 mm; inhibition zone (IZ) [10]: 19 mm
COc1ccc(Nc2ccc3c(C(=O)O)cc(-c4ccccc4)nc3c2)cc1	2	3	3	3	8	5	4	5	4	8	–
NS(=O)(=O)c1ccc(Nc2ccc3c(C(=O)O)cc(-c4ccccc4)nc3c2)cc1	9	8	–	2	5	11	5	5	5	4	diameter of the inhibition zone (DIZ) [3]: inactive
O=C(O)CNc1ccc2c(C(=O)O)cc(-c3ccccc3)nc2c1	–	2	5	2	7	8	4	5	–	4	diameter of the inhibition zone (DIZ) [1]: inactive; diameter of the inhibition zone (DIZ) [7]: inactive
CC1COc2c(N3CCN(C)CC3)c(F)cc3c(=O)c(C(=O)O)cn1c23 (centres undefined) [OFLOXACIN]	16	17	19	17	16	17	16	17	17	16	–
O=C(O)c1cc(-c2ccccc2)nc2cc(N3CCNCC3)ccc12	4	10	6	5	7	11	5	7	2	4	–
O=C(O)c1cc(-c2ccccc2)nc2cc(Nc3ccncc3)ccc12	3	4	4	6	7	4	5	–	5	5	diameter of the inhibition zone (DIZ) [5]: inactive
NC(=O)Nc1ccc2c(C(=O)O)cc(-c3ccccc3)nc2c1	9	7	6	6	6	9	10	9	9	9	–
NC(=S)Nc1ccc2c(C(=O)O)cc(-c3ccccc3)nc2c1	9	5	–	3	9	7	5	5	–	12	diameter of the inhibition zone (DIZ) [3]: inactive; diameter of the inhibition zone (DIZ) [7]: inactive
O=C(O)c1cc(-c2ccccc2)nc2cc(Nc3ccc([N+](=O)[O-])cc3)ccc12	7	12	–	11	3	8	9	2	5	–	diameter of the inhibition zone (DIZ) [3]: inactive; diameter of the inhibition zone (DIZ) [10]: inactive
